In patent US11473088B2, “Method of treating cancer and method of sensitizing cancer cells to the action of chemotherapeutic agents via growth hormone receptor antagonists or knock down” (Ohio University, priority 2016, dated 2022):

Legend:
melanoma cells = experiment: Migration, invasion, clonogenicity with excess GH; assay type: cell-based, human; settings: up to 150 ng/ml GH
Method: Cell migration assays are standard methods of estimating the repair and regenerative properties of cells. In this example, the Radius Cell Migration Assay design from Cell Biolabs (Cell Biolabs #CBA-125, San Diego, Calif.) was used, and experiments were performed as per the manufacturer's protocol. In this assay, a 24-well plate containing a non-toxic, 0.68 mm biocompatible hydrogel spot is present at the center of the well, which spot prevents the attachment of cells. siRNA treated cells were trypsinized 48 hours post-transfection, counted, and seeded at 5000 cells/well in a pretreated hydrogel spot-containing 24-well plate. […] Images were captured every 24 hours using a 4× objective (total magnification 40×) employing an inverted Olympus IX70 microscope fitted with a Retiga 1300 camera (QImaging, Surrey, BC). Total uncovered area at the beginning and end of assay were quantitated using ImageJ software, Experiments were performed in triplicates.
The 96-well 3D spheroid BME cell invasion assay (Trevigen, Gaithersburg, Md.) was used to evaluate the ability of cells to invade surrounding tissue. […] The invasive behavior of the cells was monitored every 24 hours for up to 72 hours. […] Total pixels at the beginning and end of assay were quantitated using ImageJ software. […]
Colony formation on soft agar assay was next examined using a high-throughput fluorescent readout. […]

human melanoma cells = experiment: RT-qPCR of RNA levels after hGH addition or GHR-KD; assay type: cell-based
Method: For hGH treatment, 16 hours after seeding (or 24 hours post-transfection), the cells were serum-starved for 2 hours in serum-free growth media, and hGH (phosphate buffered saline was used as control where applicable) was added at the noted concentrations (0-, 5-, 50-, and 150 ng/ml). Cells were subsequently incubated for 24 hours before evaluating RNA levels. Recombinant hGH was purchased from Antibodies Online (#ABIN2017921, Atlanta, Ga.).
Transfection was performed using siLentFect lipid reagent (Biorad #170-3360, Hercules, Calif.) following the manufacturer's protocol. […] Mock transfections were performed using universal scrambled negative control siRNA-duplex (Origene #SR30004). TYE-563-fluorescent labeled siRNA duplex (Origene #SR30002) was used as the transfection control. Cells were trypsinized, counted using a Countess Automated Cell Counter (Life Technologies, Carlsbad, Calif.), and seeded at 25,000-30,000 cells/cm^2, the cells being allowed to attach for 16-18 hours. The growth media was replaced with fresh antibiotic free complete growth medium just prior to transfection. […] Media was changed to complete growth medium plus antibiotics after 24 hours. RNA levels were analyzed 48 hours post-transfection, and protein levels were analyzed at 60 hours post-transfection.
RNA extraction was performed using the IBI-Trizol based total RNA purification kit (MidSci #IB47632, St. Louis, Mo.), and reverse transcription was performed using Maxima First Strand cDNA synthesis kit (Thermo Fisher Scientific #K1642, Waltham, Mass.) following the manufacturers' protocols. Real time-quantitative PCR and melt curve analysis were performed using Maxima SYBR-Green qPCR master mix (Thermo Fisher Scientific #K0241) and a T100 thermal cycler (Biorad #1861096, Hercules, Calif.). RNA and DNA concentrations were estimated using a Nanodrop2000 (Thermo Fisher Scientific, Waltham, Mass.) spectrophotometer. Primers were obtained from Sigma-Aldrich for the following human genes, with primer efficiency being experimentally confirmed: GAPDH, b-Actin, GHR, GHRHR, SOCS2, IGF1, IGF1R, IGF2, IGF2R, PRL, PRLR, insulin (Ins), IR, IGFBP2, IGFBP3, EGFR, HGF, cMET and ERBB3. Each sample represented a pool of two replicates per experiment. Experiments were performed at least three times. Each qPCR for individual genes and every treatment for every cell type was performed in triplicates.
And so—referring now to FIGS. 12A-12B, 17A-17C, 18A-18F, 19A-19F, and 20A-20F—RT-qPCR analysis of GH-IGF axis in human melanoma cells (FIGS. 12A-12B) and RT-qPCR analysis of GH-GHR and PRL-PRLR pairs in human melanoma cells (FIGS. 17A-17C) was performed. […] The percentage free area at the end time point was calculated using ImageJ software and reflected the decrease/inhibition in migration. […]

[1] = SK-MEL-28 and MALME-3M, maximum GH concentrations

hGH: Recombinant human growth hormone, Antibodies Online #ABIN2017921
melanoma migration, invasion, or clonogenicity upon incubation with excess GH (melanoma cells): No marked increase | level of decrease of some ABC-transporters in presence of GH (human melanoma cells; 50 ng/mL GH, with anti-cancer drugs): ~2 fold | ERBB3 RNA levels (human melanoma cells; GH stimulation or GHR-KD): upregulation | HGF expression level upregulated with added GH (human melanoma cells; [1]): more than 2 fold | MET expression level upregulated with added GH (human melanoma cells; [1]): more than 2 fold
